In series [1] the test system is Plasmodium falciparum. Put plainly: Antimalarial activity against chloroquine-sensitive Plasmodium falciparum 3D7 infected in erythroctes incubated for 72 hrs by SYBR green 1 based spectrofluorometer. The class given is functional, organism-based, Erythrocyte.
In series [2] the test system is Plasmodium falciparum. Put plainly: Antimalarial activity against chloroquine-resistant Plasmodium falciparum K1 infected in erythroctes incubated for 72 hrs by SYBR green 1 based spectrofluorometer. The class given is functional, organism-based, Erythrocyte.
Series [3] can be described thus: Cytotoxicity against mouse J774.A1 cells. The class given is toxicity, cell-based.
Where [4] appears, read: Plasmodium falciparum, 3D7, Erythrocyte, 72 h.
The mark [5] stands for this setting: Plasmodium falciparum, K1, Erythrocyte, 72 h.

As usually defined, the EC50 is the concentration that produces a half-maximal response.

Each structure is given as a SMILES string.

With `COCC1=C(C(=O)OC)C(c2ccc(Cl)cc2C)C2=C(CC(c3ccc(OC)c(OC)c3)CC2=O)N1` (stereo in doubt; 51A), the 50% effective concentration (EC50) with Plasmodium falciparum [1] (erythrocyte) was 0.0396 µM; in the series on Plasmodium falciparum [2] (erythrocyte) it was 0.0216 µM; in series [3], more than 20 µM.
For `CCOC(=O)C1=C(C)NC2=C(C(=O)OC(c3ccc(Cl)c(OC)c3)C2)C1c1ccc(Cl)cc1C` (stereo in doubt; 42A) the same measures were more than 13 µM, more than 13 µM and more than 20 µM.
Take `CCOC(=O)C1=C(C)NC2=C(C(=O)OC(c3ccccc3C)C2)C1c1ccccc1Cl` (stereo unspecified): the EC50 with Plasmodium falciparum [1] (setting [4]) is more than 5 µM; in the series with Plasmodium falciparum [2] (setting [5]), more than 5 µM; in series [3] it was more than 20 µM.
`CCCC1=C(C(=O)OCC)C(c2ccc(Cl)cc2C)C2=C(CC(c3ccc(OC)c(OC)c3)CC2=O)N1` (stereo in doubt; 44A): the EC50 is 0.0983 µM with Plasmodium falciparum [1] (erythrocyte), 0.0829 µM with Plasmodium falciparum [2] (erythrocyte) and more than 20 µM in series [3].
For `CCCOC(=O)C1=C(C)NC2=C(C(=O)OC(c3ccc(OC)c(OC)c3)C2)C1c1ccccc1Cl` (stereo in doubt; 29A) the same measures were 2.36 µM, more than 7 µM and more than 20 µM.
Turning to `CCCC1=C(C(=O)OCC)C(c2ccc(Cl)cc2C)C2=C(CC(c3ccc(Cl)c(OC)c3)CC2=O)N1` (stereo in doubt; 46A), the concentration for a half-maximal effect (EC50) is 0.319 µM in the series on Plasmodium falciparum [1] (erythrocyte), 0.244 µM in the series with Plasmodium falciparum [2] (erythrocyte) and more than 20 µM in series [3].
For `CCOC(=O)C1=C(C)NC2=C(C(=O)CC(c3ccc(OC)c(OC)c3)C2)C1c1ccc(Cl)cc1` (stereo in doubt; 36A) the same measures were 0.264 µM, 0.221 µM and more than 20 µM.
For `CCOC(=O)C1=C(c2ccccc2)NC2=C(C(=O)CC(c3ccc(OC)c(OC)c3)C2)C1c1ccccc1Cl` (stereo in doubt; 35A) the same measures were 3.72 µM, more than 10.9 µM and more than 20 µM.
Consider `COCC1=C(C(=O)OC)C(c2ccc(Cl)cc2)C2=C(CC(c3cc(OC)c(OC)c(OC)c3)OC2=O)N1` (stereo in doubt; 56A), for which the EC50 in the series on Plasmodium falciparum [1] (erythrocyte) is 0.061 µM; with Plasmodium falciparum [2] (setting [5]), 0.0624 µM; in series [3], more than 20 µM.
Regarding `CCOC(=O)C1=C(C)NC2=C(C(=O)OC(c3cccc(OC)c3)C2)C1c1ccccc1Cl` (stereo in doubt; 25A), the values for the EC50 (with Plasmodium falciparum [1] (erythrocyte); with Plasmodium falciparum [2] (erythrocyte); in series [3]) were 2.13 µM, more than 7 µM and more than 20 µM, respectively.
For `CCOC(=O)C1=C(C)NC2=C(C(=O)OC(c3ccc(OC)c(OC)c3)C2)C1c1ccc(Cl)cc1` (stereo in doubt; 5A) the same measures were 0.769 µM, 0.633 µM and more than 20 µM.
For `CCOC(=O)C1=C(C)NC2=C(C(=O)OC(c3ccc(OC)c(OC)c3)C2)C1c1ccccc1C` (stereo in doubt; 6A) the same measures were 1.27 µM, 2.05 µM and more than 20 µM.
For `CCOC(=O)C1=C(C)NC2=C(C(=O)OC(c3ccc(Cl)cc3)C2)C1c1ccccc1Cl` (stereo in doubt; 20A) the same measures were 0.51 µM, 0.56 µM and more than 20 µM.
Regarding `CCCC1=C(C(=O)OCC)C(c2ccc(Cl)cc2C)C2=C(CC(c3ccc(OC)c(OC)c3)OC2=O)N1` (stereo in doubt; 45A), the concentration for a half-maximal effect (EC50) was 0.148 µM in the series on Plasmodium falciparum [1] (erythrocyte), 0.102 µM in the series on Plasmodium falciparum [2] (erythrocyte) and more than 20 µM in series [3].
As to `CCOC(=O)C1=C(C)NC2=C(C(=O)OC(c3ccc(OC)c(OC)c3)C2)C1c1ccccc1OC` (stereo in doubt; 9A), the EC50 was more than 5.6 µM with Plasmodium falciparum [1] (erythrocyte), more than 5.6 µM with Plasmodium falciparum [2] (setting [5]) and more than 20 µM in series [3].
`CCOC(=O)C1=C(C)NC2=C(C(=O)CC(c3ccc(Cl)c(OC)c3)C2)C1c1ccccc1Cl` (stereo in doubt; 39A): the results for the EC50 (with Plasmodium falciparum [1] (erythrocyte); with Plasmodium falciparum [2] (erythrocyte); in series [3]) were 0.63 µM, 0.397 µM and more than 20 µM, respectively.
For `CCOC(=O)C1=C(C)NC2=C(C(=O)OC(c3ccc(OC)c(OC)c3)C2)C1c1ccc(-c2ccccc2)cc1` (stereo unspecified), the EC50 with Plasmodium falciparum [1] (setting [4]) was more than 10 µM; with Plasmodium falciparum [2] (setting [5]), more than 10 µM; in series [3], more than 20 µM.
Regarding `COc1ccc(C2CC3=C(C(=O)O2)C(c2ccccc2Cl)C(C(=O)OCc2ccccc2)=C(C)N3)cc1OC` (stereo in doubt; 31A), the EC50 in the series on Plasmodium falciparum [1] (setting [4]) was more than 11.8 µM; in the series on Plasmodium falciparum [2] (setting [5]) it was more than 11.8 µM; in series [3], more than 20 µM.
For the compound `CCOC(=O)C1=C(C)NC2=C(C(=O)OC(c3ccccc3Cl)C2)C1c1ccccc1Cl` (stereo in doubt; 18A), the half-maximal effective concentration (EC50) in the series with Plasmodium falciparum [1] (setting [4]) was more than 5.5 µM; with Plasmodium falciparum [2] (setting [5]) it was more than 5.5 µM; in series [3], more than 20 µM.
As for `CCOC(=O)C1=C(C)NC2=C(C(=O)OC(c3ccc(OC)c(OC)c3)C2)C1c1ccc2ccccc2c1` (stereo unspecified), the EC50 with Plasmodium falciparum [1] (setting [4]) is more than 10 µM; in the series on Plasmodium falciparum [2] (setting [5]) it was more than 10 µM; in series [3], more than 20 µM.
Turning to `CCCC1=C(C(=O)OCC)C(c2ccc(Cl)cc2C)C2=C(CC(c3cc(OC)ccc3OC)CC2=O)N1` (stereo in doubt; 48A), the figures for the EC50 (in the series on Plasmodium falciparum [1] (erythrocyte); in the series with Plasmodium falciparum [2] (erythrocyte); in series [3]) were 0.542 µM, 0.228 µM and more than 20 µM, respectively.
In the case of `CCOC(=O)C1=C(C)NC2=C(C(=O)OC(c3ccc(OC)c(OC)c3)C2)C1c1ccc([N+](=O)[O-])cc1` (stereo in doubt; 13A), the EC50 in the series with Plasmodium falciparum [1] (erythrocyte) was more than 10 µM; in the series on Plasmodium falciparum [2] (erythrocyte) it was more than 10 µM; in series [3], more than 20 µM.
In the case of `CCOC(=O)C1=C(C)NC2=C(C(=O)OC(c3ccc(OC)c(OC)c3)C2)C1c1cccc(C)c1` (stereo unspecified), the concentration for a half-maximal effect (EC50) was more than 10 µM with Plasmodium falciparum [1] (setting [4]), more than 10 µM in the series on Plasmodium falciparum [2] (setting [5]) and more than 20 µM in series [3].
Take `CCOC(=O)C1=C(C(=O)OCC)C(c2ccccc2Cl)C2=C(CC(c3ccc(OC)c(OC)c3)OC2=O)N1` (stereo in doubt; 33A): the values for the EC50 (in the series on Plasmodium falciparum [1] (erythrocyte); with Plasmodium falciparum [2] (erythrocyte); in series [3]) were 0.0381 µM, 0.0136 µM and more than 20 µM, respectively.
`CCOC(=O)C1=C(C)NC2=C(C(=O)OC(c3ccc(OC)c(OC)c3)C2)C1c1ccc(OC)cc1` (stereo unspecified): the values for the concentration for a half-maximal effect (EC50) (in the series with Plasmodium falciparum [1] (setting [4]); with Plasmodium falciparum [2] (setting [5]); in series [3]) were more than 10 µM, more than 10 µM and more than 20 µM, respectively.
`CCOC(=O)C1=C(C)NC2=C(C(=O)CC(c3ccc(OC)c(OC)c3)C2)C1c1ccc(Cl)cc1C` (stereo in doubt; 37A): the EC50 in the series on Plasmodium falciparum [1] (erythrocyte) was 0.094 µM; in the series on Plasmodium falciparum [2] (erythrocyte), 0.0826 µM; in series [3] it was more than 20 µM.
For the compound `COc1ccc(C2CC(=O)C3=C(C2)NC(C)=C(C(=O)O)C3c2ccccc2Cl)cc1OC` (stereo in doubt; 27A), the 50% effective concentration (EC50) in the series on Plasmodium falciparum [1] (setting [4]) was more than 15 µM; in series [3], more than 20 µM.
Consider `CCOC(=O)C1=C(C)NC2=C(C(=O)OC(c3cccc(Cl)c3)C2)C1c1ccccc1Cl` (stereo unspecified), for which the concentration giving a half-maximal response (EC50) in the series on Plasmodium falciparum [1] (setting [4]) is more than 6 µM; with Plasmodium falciparum [2] (setting [5]), more than 6 µM; in series [3], more than 20 µM.
`CCOC(=O)C1=C(C)NC2=C(C(=O)OC(c3cccc(C)c3)C2)C1c1ccccc1Cl` (stereo in doubt; 22A): the figures for the EC50 (with Plasmodium falciparum [1] (setting [4]); in the series with Plasmodium falciparum [2] (setting [5]); in series [3]) were more than 5 µM, more than 5 µM and more than 20 µM, respectively.
As to `CCOC(=O)C1=C(C)NC2=C(C(=O)OC(c3ccc(OC)c(OC)c3)C2)C1c1cccc(Cl)c1` (stereo unspecified), the concentration for a half-maximal effect (EC50) is more than 10 µM with Plasmodium falciparum [1] (setting [4]), more than 10 µM with Plasmodium falciparum [2] (setting [5]) and more than 20 µM in series [3].
As for `CCOC(=O)C1=C(C)NC2=C(C(=O)OC(c3ccc(OC)c(OC)c3)C2)C1c1ccccc1Cl` (stereo in doubt; 3A), the results for the EC50 (with Plasmodium falciparum [1] (erythrocyte); in the series on Plasmodium falciparum [2] (erythrocyte); in series [3]) were 2.33 µM, 1.39 µM and more than 20 µM, respectively.
On to `CCOC(=O)C1=C(C)NC2=C(C(=O)OC(c3ccc(OC)c(OC)c3)C2)C1c1cccc2ccccc12` (stereo unspecified), for which the EC50 in the series with Plasmodium falciparum [1] (setting [4]) was more than 10 µM; in the series on Plasmodium falciparum [2] (setting [5]), more than 10 µM; in series [3] it was more than 20 µM.
On to `COc1cc([C@@H]2c3cc4c(cc3[C@H](O)[C@H]3COC(=O)[C@H]23)OCO4)cc(OC)c1OC` [PODOFILOX], for which the response in series [3] was half-maximal at 0.25 µM (EC50).
For `CCOC(=O)C1=C(C)NC2=C(C(=O)OC(c3ccc(OC)c(OC)c3)C2)C1c1ccc(Cl)cc1C` (stereo in doubt; 38A), the figures for the EC50 (in the series with Plasmodium falciparum [1] (erythrocyte); with Plasmodium falciparum [2] (erythrocyte); in series [3]) were more than 4.7 µM, 0.992 µM and more than 20 µM, respectively.
With `CCOC(=O)C1=C(C)NC2=C(C(=O)OC(c3ccc(OC)c(OC)c3)C2)C1c1ccc([N+](=O)[O-])cc1` (stereo in doubt; 13B), the half-maximal effective concentration (EC50) was found to be 2.71 µM with Plasmodium falciparum [1] (erythrocyte) and 2.2 µM with Plasmodium falciparum [2] (erythrocyte).
For `CCOC(=O)C1=C(C)NC2=C(C(=O)CC(c3ccc(OC)c(OC)c3)C2)C1c1ccc(Cl)cc1` (stereo in doubt; 36B) the same measures were 0.0103 µM and 0.0093 µM.
For the compound `CCOC(=O)C1=C(C)NC2=C(C(=O)CC(c3ccc(OC)c(OC)c3)C2)C1c1ccc(Cl)cc1C` (mixture of isomers), the EC50 in the series with Plasmodium falciparum [1] (erythrocyte) worked out at 0.0551 µM; with Plasmodium falciparum [2] (erythrocyte) it was 0.0385 µM.
For `CCOC(=O)C1=C(C)NC2=C(C(=O)OC(c3cccc(C)c3)C2)C1c1ccccc1Cl` (stereo in doubt; 22B) the same measures were more than 6 µM and more than 6 µM.
For `CCCC1=C(C(=O)OCC)C(c2ccc(Cl)cc2C)C2=C(CC(c3ccc(OC)c(OC)c3)CC2=O)N1` (mixture of isomers) the same measures were 0.0135 µM and 0.0241 µM.
For `CCOC(=O)C1=C(C)NC2=C(C(=O)OC(c3ccc(OC)c(OC)c3)C2)C1c1ccccc1` (mixture of isomers) the same measures were 0.18 µM and 0.12 µM.
Take `CCOC(=O)C1=C(C)NC2=C(C(=O)OC(c3ccc(OC)c(OC)c3)C2)C1c1ccccc1Cl` (mixture of isomers): the concentration giving a half-maximal response (EC50) came out at 0.372 µM with Plasmodium falciparum [1] (erythrocyte) and 0.323 µM in the series on Plasmodium falciparum [2] (erythrocyte).
Turning to `COc1ccc(C2CC3=C(C(=O)O2)C(c2ccccc2Cl)C(C(=O)OCc2ccccc2)=C(C)N3)cc1OC` (mixture of isomers), the concentration for a half-maximal effect (EC50) in the series with Plasmodium falciparum [1] (erythrocyte) and with Plasmodium falciparum [2] (erythrocyte) was more than 7.5 µM in each case.
Turning to `CCOC(=O)C1=C(C)NC2=C(C(=O)OC(c3ccc(OC)c(OC)c3)C2)C1c1ccc(Cl)cc1C` (mixture of isomers), the EC50 was 0.0195 µM in the series with Plasmodium falciparum [1] (erythrocyte) and 0.0468 µM with Plasmodium falciparum [2] (erythrocyte).
With `CCOC(=O)C1=C(c2ccccc2)NC2=C(C(=O)CC(c3ccc(OC)c(OC)c3)C2)C1c1ccccc1Cl` (stereo in doubt; 35B), the half-maximal effective concentration (EC50) in the series on Plasmodium falciparum [1] (erythrocyte) is 0.0405 µM; in the series on Plasmodium falciparum [2] (erythrocyte), 0.0467 µM.
Take `CCOC(=O)C1=C(C)NC2=C(C(=O)OC(c3ccccc3)C2)C1c1ccccc1Cl` (stereo in doubt; 17A): the EC50 was more than 9.5 µM in the series with Plasmodium falciparum [1] (setting [4]) and more than 20 µM in series [3].
